ChEMBL document CHEMBL5523711, “Design, synthesis, and bioevaluation of SOS1 PROTACs derived from pyrido[2,3-d]pyrimidin-7-one-based SOS1 inhibitor” (Bioorg Med Chem Lett, 2024)

Key:
Format in all cases: functional, cell-based
[1] = system: SW-620; assay: Antiproliferative activity against human SW620 cells harboring KRAS G12V mutant assessed as inhibition of cell growth
[2] = system: A549; assay: Antiproliferative activity against human A549 cells harboring KRAS G12S mutant assessed as inhibition of cell growth
[3] = system: DLD-1; assay: Antiproliferative activity against human DLD-1 cells harboring KRAS G13D mutant assessed as inhibition of cell growth

SMILES: COc1cc2nc(C)nc(N[C@H](C)c3cc(N)cc(C(F)(F)F)c3)c2cc1O[C@H]1CCOC1
- IC50 [1]: 0.0505 µM
- IC50 [2]: 0.106 µM
- IC50 [3]: 0.169 µM

SMILES: COc1ccc(C(=O)N2CCC3(CCC(CN4CCN(C(=O)[C@H]5CC[C@H](c6cc7c(N[C@H](C)c8cc(N)cc(C(F)(F)F)c8)ncnc7n(C)c6=O)CC5)CC4)CC3)CC2)cc1N1CCC(=O)NC1=O
- IC50 [1]: 0.0367 µM
- IC50 [2]: 0.0522 µM
- IC50 [3]: 0.107 µM
